Where a name gives a salt, the structure may show the parent alone.
Columns and labels:
Male, Fischer 344 rats = assay: Block of Conditioned Avoidance Responding (Rat) test (CAR); details: for CAR 5 mg/kg IP Administration (% change CAR) / CAR 15 mg/kg IP Administration (% change CAR): negative number = blockade of CAR
From the text: Apparatus: Rat operant chambers, housed within sound attenuated booths, both from Capden Instruments Ltd., were used in this test. The test chamber (8" H x […] D) is constructed of aluminum and plexiglass with floor grid bars of stainless-steel (1/8" O.D.) spaced 9/16" apart. A stainless-steel operation level 1-1/2" wide projects 3/4" into the chamber and is positioned 2-2/8" above the grid floor. The shock stimulus is delivered via the grid floor by a Coulbourn Instruments solid state module. The parameters of the test and the collection of data are controlled automatically.
The rats are trained for two weeks to approach criterion levels in the avoidance test (90% avoidance rate). One-hour training sessions are run at about the same time each day for four or five days a week. The training session consists of 120 trials, with the conditioned stimuli presented every 30 sec. A trial begins with presentation of the conditioned stimuli (a light and a tone). If the rat responds by depressing the operant lever during the 15-second presentation of the conditioned stimuli, the trial is terminated and the animal is credited with a CAR. Failure to respond during the conditioned stimuli causes the presentation of the unconditioned stimulus (UCS), a 0.7 mA shock which is accompanied by a light and tone for five seconds. If the rat depressed the lever within the ten-second period, the shock and trial are terminated and an escape response recorded. If the rat fails to depress the lever during the UCS (shock), the trial is terminated after ten seconds of shock and the absence of a response is scored as a failure to escape. Intertrial level presses have no effect. If a rat performs at the 90% CAR level for two weeks, it is then run twice a week on the test schedule (see below) until baseline performance stabilized.
Trained rats are run in a one-hour session on two consecutive days at the same time and in the same test chamber each day. The sessions consist of 60 trials, one every minute. The conditioned stimuli are presented for 15 sec (maximum) and the unconditioned stimuli five sec (maximum). On Day 1, a vehicle solution is administered to the rats at a time preceding the trial run corresponding to the pretreatment time for the test compound. The route of administration and the volume of vehicle are also matched to that of the test compound.
The percent change in CAR on the drug treatment day compared to vehicle pretreatment day is the key measure. The percent change (% change) in CAR is determined using the following formula: % change CAR = ((% CAR for Day 2/% CAR for Day 1) x 100)-100 [formula]
A negative number indicates a blockade of CAR, whereas a positive number would indicate increased CAR. The test results are reported as the mean % change for the group of rats. Failure to escape, a measure of the general sedative potential of the compound, was calculated for each animal as follows: % Failures = # of Failures to Escape/# of trials [formula]
The % failures, viz., loss of escape, is also reported as a group mean. Failures to escape are monitored closely and a session is terminated if ten failures occurred.
In the Tables and formulas therein, OiPr is isopropoxy, Me is methyl, MeO is methoxy, Et is ethyl, Ph is phenyl, n-Bu is normal butyl, cC6H11 is cyclohexyl, BOC is t-butyloxycarbonyl, Ac is acetyl, and NT is not tested in that partcular test. The escape loss numbers are shown at CAR 5 mg/kg unless otherwise noted.

[1] = target: T1, D-2 (dopamine-2) receptors (Rattus norvegicus, UniProt P61169); assay: biochemical; type: binding, male, Wistar rats; details: rat striatum P2 fraction, 3H-spiperone 0.05 nM; read-out: Receptor Binding (Ki nM) D2
T1 construct: The D2 assay employed a P2 fraction from the striatum, the ligand ^3H-spiperone at a concentration of 0.05 nM; from tissue; host or cells: rat striatum, P2 fraction (synaptosomal membranes), male Wistar rats
Description: The dopamine D2 binding activity of compounds was determined using a P2 fraction (synaptosomal membranes) prepared from male, Wistar rats.
The data from this assay were analyzed by calculating the percent inhibition of the binding of the tritiated ligands by given concentrations of the test compound. Kl values, where given, were obtained from the logit analysis of concentration-inhibition curves.

T1 sequence (P61169 whole entry): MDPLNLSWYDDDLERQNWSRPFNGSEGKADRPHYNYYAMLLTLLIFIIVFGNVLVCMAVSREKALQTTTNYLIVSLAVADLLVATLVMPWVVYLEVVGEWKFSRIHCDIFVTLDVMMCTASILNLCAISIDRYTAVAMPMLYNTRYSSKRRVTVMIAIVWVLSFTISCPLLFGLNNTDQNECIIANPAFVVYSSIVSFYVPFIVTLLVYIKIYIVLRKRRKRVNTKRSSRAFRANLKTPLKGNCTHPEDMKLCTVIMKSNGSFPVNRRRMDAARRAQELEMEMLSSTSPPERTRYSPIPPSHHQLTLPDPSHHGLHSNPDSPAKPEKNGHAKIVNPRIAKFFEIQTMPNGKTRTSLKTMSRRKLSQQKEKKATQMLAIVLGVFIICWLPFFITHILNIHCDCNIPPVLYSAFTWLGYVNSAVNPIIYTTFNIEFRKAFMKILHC

SMILES | Ki [1] | CAR 15 mg/kg IP Administration (% change CAR) (Male, Fischer 344 rats) | (Escape Loss) % failures to escape (Male, Fischer 344 rats; at CAR 15 mg/kg IP) | other results
CC(C)Oc1ccccc1N1CCN(Cc2cccc(C(=S)N3CCCCC3)c2)CC1.Cl [Compound 1, 1-[3-[[4-[2-(1-Methylethoxy)phenyl]-1-piperazinyl]methyl]thiobenzoyl]piperidine Hydrochloride] | 8 nM | – | – | CAR 5 mg/kg IP Administration (% change CAR) (Male, Fischer 344 rats): -71%; (Escape Loss) % failures to escape (Male, Fischer 344 rats; at CAR 5 mg/kg IP): 20%
CC(C)Oc1ccccc1N1CCN(Cc2cccc(C(=O)N3C(C)CCC3C)c2)CC1 (stereo not drawn) [Compound 2] | 4.7 nM | – | – | –
C[C@@H]1CCC[C@H](C)N1C(=O)c1cccc(CN2CCN(c3ccccc3C#N)CC2)c1 [Compound 3] | 303 nM | – | – | –
CC(C)Oc1ccccc1N1CCN(Cc2cccc(C(=O)N3CCC4CCCCC43)c2)CC1 (stereo not drawn) [Compound 4] | 5.6 nM | – | – | –
COc1ccc(CN2CCN(c3ncccn3)CC2)cc1C(=O)N1[C@H](C)CCC[C@@H]1C [Compound 6] | 808 nM | – | – | –
CC(C)Oc1ccccc1N1CCN(Cc2ccc([N+](=O)[O-])c(C(=O)N3CCCCC3)c2)CC1 [Compound 7] | 85 nM | – | – | –
CC(C)Oc1ccccc1N1CCN(Cc2cccc(C(=O)N3C(C)(C)CCCC3(C)C)c2)CC1 [Compound 12] | 4.7 nM | -92% | 9% | –
CC(C)Oc1ccccc1N1CCN(Cc2cccc(C(=O)N3CCC[C@H]3C(=O)OCc3ccccc3)c2)CC1 [Compound 13] | 10 nM | -4% | 0% | –
C[C@@H]1CCC[C@H](C)N1C(=O)c1cccc(CN2CCN(c3ccc(Cl)c(Cl)c3)CC2)c1 [Compound 14] | 6.5 nM | -63% | 3% | –
COc1ccc(CN2CCC(c3ccccc3OC(C)C)CC2)cc1C(=O)N1[C@H](C)CCC[C@@H]1C [Compound 15] | 43 nM | -86% | 30% | –
CC(C)Oc1ccccc1N1CCN(Cc2cccc(C(=O)N3CCC[C@H]3CO)c2)CC1 [Compound 16] | 5.1 nM | -99% | 35% | –
CC(C)Oc1ccccc1N1CCN(Cc2ccc(N)c(C(=O)N3CCCCC3)c2)CC1 [Compound 17] | 6.4 nM | -100% | 87% | –
CCOC(=O)C1CCCCN1C(=O)c1cccc(CN2CCN(c3ccccc3C)CC2)c1 (stereo not drawn) [Compound 18] | 132 nM | -24% | 9% | –
CCOC(=O)C1CCCCN1C(=O)c1cccc(CN2CCN(c3ccccc3OC(C)C)CC2)c1 (stereo not drawn) [Compound 19] | 4.1 nM | -97% | 46% | –
CC(C)Oc1ccccc1N1CCN(Cc2cccc(C(=O)N3CCCCC3CO)c2)CC1 (stereo not drawn) [Compound 21] | 5.2 nM | -99% | 43% | –
O=C(c1cccc(CN2CCN(c3ccccc3F)CC2)c1)N1CCCCC1 [Compound 22] | – | -84% | 21% | –
O=C(c1cccc(CN2CCN(c3ncccn3)CC2)c1)N1CCc2ccccc21 [Compound 23] | > 1000 nM | -62% | 9% | –
CC(C)Oc1ccccc1N1CCN(Cc2cccc(C(=O)N3CCCC3CO)c2)CC1 (stereo not drawn) [Compound 26] | 9 nM | -100% | 43% | –

SMILES | Ki [1] | CAR 15 mg/kg IP Administration (% change CAR) (Male, Fischer 344 rats) | (Escape Loss) % failures to escape (Male, Fischer 344 rats; at CAR 15 mg/kg IP) | other results
CC(=O)Nc1ccc(CN2CCN(c3ccccc3OC(C)C)CC2)cc1C(=O)N1CCCCC1 [Compound 28] | 29 nM | -100% | 17% | –
CC(C)Oc1ccccc1C1CCN(Cc2cccc(C(=O)N3[C@H](C)CCC[C@@H]3C)c2)CC1 [Compound 40] | – | – | – | CAR 5 mg/kg IP Administration (% change CAR) (Male, Fischer 344 rats): -98%; (Escape Loss) % failures to escape (Male, Fischer 344 rats; at CAR 5 mg/kg IP): 37%
O=C(c1cccc(CN2CCN(c3cccc([N+](=O)[O-])c3)CC2)c1)N1CCCCC1 [Compound 49] | – | -78% | 0% | –
CC(C)Oc1ccccc1N1CCN(Cc2cccc(C(=O)N3CCC3)c2)CC1 [Compound 51] | – | -88% | 0% | –
CC(C)Oc1ccccc1N1CCN(Cc2cccc(C(=O)N3CCCC3)c2)CC1 [Compound 52] | – | – | – | CAR IP Administration (% change CAR) at 7.5 mg/kg (Male, Fischer 344 rats; 7.5 mg/kg IP): -98%; (Escape Loss) % failures to escape (Male, Fischer 344 rats; at CAR 7.5 mg/kg IP): 0%
CCN(CC)C(=O)c1cccc(CN2CCN(c3ccccc3OC(C)C)CC2)c1 [Compound 68] | – | – | – | CAR 5 mg/kg IP Administration (% change CAR) (Male, Fischer 344 rats): -96%; (Escape Loss) % failures to escape (Male, Fischer 344 rats; at CAR 5 mg/kg IP): 14%
CCCCN(CCCC)C(=O)c1cccc(CN2CCN(c3ccccc3OC(C)C)CC2)c1 [Compound 69] | – | -6% | 0% | –
COc1ccccc1N1CCN(Cc2cccc(C(=O)N3CCCCCC3)c2)CC1 [Compound 85] | – | – | – | CAR 5 mg/kg IP Administration (% change CAR) (Male, Fischer 344 rats): -95%; (Escape Loss) % failures to escape (Male, Fischer 344 rats; at CAR 5 mg/kg IP): 22%
O=C(c1cccc(CN2CCN(c3cccc(Cl)c3)CC2)c1)N1CCCCC1 [Compound 91] | – | – | – | CAR 5 mg/kg IP Administration (% change CAR) (Male, Fischer 344 rats): -36%; (Escape Loss) % failures to escape (Male, Fischer 344 rats; at CAR 5 mg/kg IP): 21%
O=C(c1cccc(CN2CCN(c3ccccc3)CC2)c1)N1CCCCC1 [Compound 95] | – | -82% | 11% | –
CC(C)Oc1ccccc1N1CCN(Cc2cccc(C(=O)N3CC4CCC(CC4)C3)c2)CC1 [Compound 96] | – | -98% | 67% | –
CC(C)Oc1ccccc1N1CCN(CCCC(=O)c2ccc(C(=O)N3CCCCC3)cc2)CC1 [Compound 100, fumarate] | 11 nM | – | – | –
CC(C)Oc1ccccc1N1CCN(CCCC(O)c2ccc(C(=O)N3CCCCC3)cc2)CC1 (stereo not drawn) [Compound 101, bisoxalate] | 13 nM | – | – | –
CC(C)Oc1ccccc1N1CCN(CCCCc2ccc(C(=O)N3CCCCC3)cc2)CC1 [Compound 102, 1-[4-[4-[4-[2-(1-Methylethoxy)phenyl]-1-piperazinyl]butyl]benzoyl]piperidine dihydrobromide] | 7.2 nM | – | – | –
CCOC(=O)C1CCN(C(=O)c2ccccc2CN2CCN(c3ccccc3OC(C)C)CC2)CC1 [Compound 108] | 10.4 nM | – | – | –
CC(C)Oc1ccccc1N1CCN(Cc2ccccc2C(=O)N2CCCC(C)(C)C2)CC1 [Compound 109] | 7 nM | – | – | –
CC(C)Oc1ccccc1N1CCN(Cc2ccccc2C(=O)N2CCOCC2)CC1 [Compound 110] | 32 nM | – | – | –

From patent EP0563345B1, “NOVEL 4-ARYLPIPERAZINES AND 4-ARYLPIPERIDINES” (MCNEILAB, INC., priority 1991, dated 1993)
